Experimental data taken from US12441706B2, “Protein degradation agent compound preparation method and application” (SHANGHAI JEMINCARE PHARMACEUTICALS CO., LTD., priority 2019, dated 2025).

Columns and labels:
[1] = tested on: LNcap FGC cells; assay: Inhibition of proliferation of LNcap FGC cells (Cell Titer Glo, 6 days); assay type: cell-based; conditions: Homo sapiens, LNCaP, 144 h
Method: Tumor cell line LNcap FGC (ATCC catalog number CRL-1740) was cultured in RPMI 1640 (Gibco catalog number 11875-093) and DMEM (Gibco catalog number. 11965-092) medium containing 10% FBS (Gibco catalog number 10099-141C), respectively.
LNcap FGC cells were inoculated in a 384-well plate (Perkin Elmer catalog number 6007460) at a cell density of 400 cells/well in a volume of 20 μL/well and incubated overnight in a carbon dioxide incubator (Thermo). The prepared compound solutions of different concentrations were added in a volume of 5 μL/well. The corresponding vehicle control was set at the same time. After being cultured in the incubator for 6 days, the cell plate and the contents were equilibrated to room temperature, and 25 μL of Cell Titer Glor (Promega catalog number G7573) was added to each well, shook and mixed well, incubated in dark for 10-30 minutes, and the signal values were detected with Envision microplate reader (PerkinElmer).
The percentage inhibition rate of compound-treated wells was calculated from the vehicle control wells on the plate, and the percentage inhibition rate data corresponding to different concentrations were fitted by GraphPad prism, and the IC50 values were calculated by 4-parameter nonlinear logic formula.

[2] = molecular target: T1, androgen receptor (Homo sapiens, UniProt P10275); assay: In-Cell-Western determination of androgen receptor degradation in VCaP cells; assay type: cell-based; conditions: 24 hours treatment; for DC50: concentration for half of the maximal degradation of AR in VCaP cells; for Dmax: maximum degradation of AR in VCaP cells
T1 construct: endogenous in cells; host or cells: VCaP cells
T1 sequence (P10275 1-920): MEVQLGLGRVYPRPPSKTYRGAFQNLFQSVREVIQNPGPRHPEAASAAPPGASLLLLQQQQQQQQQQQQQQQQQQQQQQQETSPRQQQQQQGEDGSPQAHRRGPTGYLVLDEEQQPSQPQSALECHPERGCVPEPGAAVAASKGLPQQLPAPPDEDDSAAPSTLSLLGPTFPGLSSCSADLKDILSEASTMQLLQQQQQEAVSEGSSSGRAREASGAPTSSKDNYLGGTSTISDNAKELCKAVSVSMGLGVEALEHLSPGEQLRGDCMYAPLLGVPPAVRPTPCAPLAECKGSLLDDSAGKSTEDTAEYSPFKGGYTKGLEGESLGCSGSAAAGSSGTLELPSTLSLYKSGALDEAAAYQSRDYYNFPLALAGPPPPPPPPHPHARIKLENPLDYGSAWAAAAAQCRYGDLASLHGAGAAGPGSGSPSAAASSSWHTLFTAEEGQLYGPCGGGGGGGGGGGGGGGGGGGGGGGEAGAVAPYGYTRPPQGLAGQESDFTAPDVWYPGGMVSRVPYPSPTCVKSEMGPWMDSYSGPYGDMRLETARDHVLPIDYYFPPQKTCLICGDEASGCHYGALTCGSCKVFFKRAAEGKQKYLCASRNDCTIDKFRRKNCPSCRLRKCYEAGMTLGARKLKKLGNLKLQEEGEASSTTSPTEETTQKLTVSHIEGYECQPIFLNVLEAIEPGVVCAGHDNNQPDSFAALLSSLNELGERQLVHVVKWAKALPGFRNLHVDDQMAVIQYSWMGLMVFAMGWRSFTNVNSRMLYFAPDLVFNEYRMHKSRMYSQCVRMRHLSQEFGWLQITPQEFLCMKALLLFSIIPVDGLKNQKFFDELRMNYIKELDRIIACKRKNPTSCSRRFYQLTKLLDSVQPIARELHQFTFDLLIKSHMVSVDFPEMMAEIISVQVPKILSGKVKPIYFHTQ
Method: The determination evaluated the properties of the compounds in Vcap cells. Intracellular androgen receptor was determined by In-Cell-Western according to the determination steps described below.
In poly-D-Lysin pretreated 96-well cell culture plate (Corning 3599), Vcap cells were divided into […] volume, and inoculated with 50,000 cells/well in Vcap cell assay medium [DMEM containing phenol red (Gibco catalog number: 11995065); fetal bovine serum FBS (Gibco catalog number: 10099141C)]. Cells were cultured for at least two days.
1. First treated cells with compound. Compounds were gradient diluted with DMSO and cell culture medium, so that DMSO contained in cell culture plates was diluted to 0.5% —polypropylene plates were used according to the following protocol:
(1)(i) 200× stock plate in DMSO was prepared; (ii) 10 mM stock solution was diluted 1:4 with DMSO (10 μL stock solution+40 μL DMSO)=2000 μM, then entered into row 2; (iii) 1:4 (10 μL protac+40 μL DMSO) gradient dilution was performed in row 2 to row 9, and row 1 was reserved for 2000 μM reference compound and row 10 for DMSO. (iv) A total of 8 concentrations (final concentrations on the 200×plate were 2000 μM, 400 μM, 80 μM, etc.). (i) 3×stock solution in medium was prepared; (ii) 3 μL of 200× stock solution was transferred to 197 μL of culture medium (using 12-channel pipette, from line 1 to line 10), i.e. 3× stock solution plate. (iii) The stock solution plate was mixed evenly. (3) (i) The culture medium of Vcap cells was replaced with fresh culture medium, 100 μL volume culture medium. (ii) The well-mixed 3×stock solution was transferred to the cell culture plate (using 12-channel pipette, and 50 μL of stock solution was transferred from line 1 to line 10). (iii) Cells were cultured for 24 hours.
2. The expression level of intracellular androgen receptor after compound treatment was […] and determined according to the following method.
(1)(i) Equal volume of 8% paraformaldehyde was added to the cell culture plate for cell fixation. The fixing solution in the cell plate was discarded and washed three times with PBS. (ii) Triton solution (1:1000 dilution of the stock solution) was prepared. The solution in the cell plate was discarded, and 200 μL of Triton diluent was added into each well. (iii) 2×blocking solution (1:4 dilution of 10×blocking stock solution) was prepared. The solution in the cell plate was discarded, and 100 μL of 2×blocking solution was added into each well. (iv) Primary antibody solution (Androgen receptor Rabbbit mAb, Cell Signaling Technology catalog number: 5153; 1:1000 dilution) was prepared. The solution in the cell plate was discarded, 100 μL volume of primary antibody diluent was added to each well, and incubated at 4° C. overnight. (v) The primary antibody solution was discarded and the cell plate was washed with 1×Wash buffer. (vi) Secondary antibody solution (GOAT Antirabbit IgG (H+L), HRP, Thermo catalog number: 31460; 1:5000 dilution) was prepared, and 100 μL volume of secondary antibody dilution was added to each well for incubation. (vii) The secondary antibody solution in the cell plate was discarded and the cell plate was washed with 1× Wash buffer. (viii) TMB chromogenic solution (BD catalog number: 550534) was prepared, and 100 μL chromogenic solution was added into each well. (ix) 50 μL volume of stop solution (BD catalog number: 550534) was added to each well. (x) The absorption values at OD 450 nm and 570 nm were read though EnVision. (2)(i) Normalized analysis was performed on the number of cells in each well. The solution in the cell plate was discarded, and washed with wash buffer for three times. (ii) Janus dilution (1:3 dilution) was prepared. (iii) 50 μL volume diluent was added to each well for incubation. (iv) The solution in the plate was discarded and washed with deionized water. […]

SMILES	Emax [1] [%]	IC50 [1] [nM]	DC50 [2] [nM]	Dmax [2] [%]
CC1(C)C(=O)N(c2ccc(C#N)c(Cl)c2)c2ccc(-c3ccc(N4CC(CN5CCN(c6ccc7c(c6)C(=O)N(C6CCC(=O)NC6=O)C7=O)CC5)C4)cc3)cc21 (stereo not drawn) [Compound 1]	91	66.1	35	68
CC1(C)C(=O)N(c2ccc(C#N)c(Cl)c2)c2ccc(-c3ccc(N4CC(CN5CCN(c6ccc7c(c6)C(=O)N(C6CCC(=O)NC6=O)C7=O)CC5)C4)nc3F)cc21 (stereo not drawn) [Compound 14]	100	60.6	94	85
CC1(C)C(=O)N(c2ccc(C#N)c(C(F)(F)F)c2)c2ccc(-c3ccc(N4CC(CN5CCN(c6ccc7c(c6)C(=O)N(C6CCC(=O)NC6=O)C7=O)CC5)C4)cc3)cc21 (stereo not drawn) [Compound 3]	93	54.8	76	60
